Holding throughout (assay type): cell-based
In experiment [1] the test system is Septoria tritici. The experiment in a line: Activity against leaf blotch on wheat caused by Septoria tritici (microtiter plate). As to conditions: active compound alone, 7 days after inoculation.
Experiment [2] deals with Pyricularia oryzae. The conditions noted are these: active compound alone, 7 days after inoculation.
Experiment [3] has as its system Botrytis cinerea. The experiment in a line: Activity against the grey mold Botrytis cinerea in the microtiterplate test.
[4] abbreviates: Botrytis cinerea, 168 h, active compound alone, 0.063 ppm, 7 days after inoculation, read-out: Observed efficacy.
Setting [5] is: Botrytis cinerea, 168 h, active compound alone, 7 days after inoculation, read-out: Observed efficacy.

Where two headings read alike, the source gives them in different places.

Molecule “manganese ethylenebis(dithiocarbanate) zinc complex [Mancozeb]” displayed an Observed efficacy in experiment [1] (4 ppm) of 52%. Consider `COC(=O)Nc1nc2ccccc2[nH]1` [Carbendazim, methyl (1H-benzoimidazol-2-yl)-carbamate, reference compound], for which the Observed efficacy in experiment [2] (0.25 ppm) worked out at 30%. The inhibition of growth at 0.063 ppm in experiment [3] (setting [4]) turned out to be 74%. `OC(c1cccnc1)c1c(-c2ccc(Cl)cc2Cl)noc1-c1cccc(Cl)c1` (centres unmarked) [Cmpd No. 4, 5-(3-Chlorophenyl)-3-(2,4-dichlorophenyl)-4-[(3-pyridyl)hydroxymethyl]-isoxazole]: the inhibition of growth at 0.001 ppm in experiment [3] (setting [5]) turned out to be 2%. On to `OC(Cc1ccccc1Cl)(Cn1nc[nH]c1=S)C1(Cl)CC1` (centres unmarked) [Prothioconazol, 2-[2-(1-chlorocyclopropyl)-3-(2-chlorophenyl)-2-hydroxypropyl]-2,4-dihydro-[1,2,4]triazole-3-thione, reference compound], for which the inhibition of growth at 1 ppm in experiment [3] (Botrytis cinerea, 168 h, active compound alone, 1 ppm, 7 days after inoculation, read-out: Observed efficacy) was 46%. For the molecule `CC(C)(C)c1onc(-c2ccc(Cl)cc2Cl)c1C(O)c1cccnc1` (centres unmarked) [Cmpd No. 7, 3-(2,4-Dichlorophenyl)-5-(1,1-dimethylethyl)-4-[(3-pyridyl)hydroxymethyl]-isoxazole], the Observed efficacy in experiment [2] (0.001 ppm) was found to be 2%. Turning to `OC(c1cccnc1)c1c(-c2ccc(F)cc2)noc1-c1ccccc1Cl` (centres unmarked) [Cmpd No. 90, 5-(2-Chlorophenyl)-3-(4-fluorophenyl)-4-[(3-pyridyl)-hydroxymethyl]-isoxazole], the Observed efficacy is recorded as 6% in experiment [2] (0.000063 ppm) and 9% in experiment [1] (0.00025 ppm). For the same molecule, in experiment [3] (Botrytis cinerea, 168 h, active compound alone, 0.000004 ppm, 7 days after inoculation, read-out: Observed efficacy), the inhibition of growth at 4e-06 ppm was determined as 5%. The inhibition of growth at 1.6e-05 ppm in experiment [3] (Botrytis cinerea, 168 h, active compound alone, 0.000016 ppm, 7 days after inoculation, read-out: Observed efficacy) worked out at 5%. The inhibition of growth at 6.3e-05 ppm in experiment [3] (Botrytis cinerea, 168 h, active compound alone, 0.000063 ppm, 7 days after inoculation, read-out: Observed efficacy) came to 1%. Also, in experiment [3] (setting [5]), the inhibition of growth at 0.00025 ppm turned out to be 1%. For the molecule `Fc1ccc([C@]2(Cn3cncn3)O[C@H]2c2ccccc2Cl)cc1` (racemic) [Epoxiconazol, (2RS,3SR)-1-[3-(2-chlorophenyl)-2,3-epoxy-2-(4-fluorophenyl)propyl]-1H-1,2,4-triazole, reference compound], in experiment [3] (Botrytis cinerea, 168 h, active compound alone, 0.25 ppm, 7 days after inoculation, read-out: Observed efficacy), the inhibition of growth at 0.25 ppm turned out to be 37%. Also, in experiment [1] (0.063 ppm), the Observed efficacy is recorded as 66%. Turning to `OC(c1cccnc1)c1c(-c2ccc(F)cc2F)noc1-c1ccc(Cl)cc1F` (centres unmarked) [Cmpd No. 145, 3-(2,4-Difluorophenyl)-4-[(3-pyridyl)-hydroxymethyl]-5-(4-chloro-2-fluorophenyl)-isoxazole], the Observed efficacy in experiment [2] (0.000063 ppm) turned out to be 10%. Further, in experiment [3] (setting [5]), the inhibition of growth at 0.001 ppm was 20%. In the case of `OC(c1cccnc1)c1c(-c2ccc(Cl)cc2F)noc1-c1ccccc1F` (centres unmarked) [Cmpd No. 144, 3-(4-Chloro-2-fluorophenyl)-4-[(3-pyridyl)-hydroxymethyl]-5-(2-fluorophenyl)-isoxazole], in experiment [3] (setting [5]), the inhibition of growth at 0.00025 ppm is 4% and the inhibition of growth at 0.001 ppm was found to be 2%. The molecule also had an Observed efficacy in experiment [1] (0.016 ppm) of 16%. In the case of `COC(=O)N(OC)c1ccccc1COc1ccn(-c2ccc(Cl)cc2)n1` [Pyraclostrobin, reference compound], the Observed efficacy in experiment [2] (0.016 ppm) was 67%. With `OC(c1cccnc1)c1c(-c2cc(F)cc(F)c2)noc1-c1ccc(Cl)cc1` (centres unmarked) [Cmpd No. 124, 5-(4-Chlorophenyl)-3-(3,5-difluorophenyl)-4-[(3-pyridyl)-hydroxymethyl]-isoxazole], the inhibition of growth at 0.001 ppm in experiment [3] (setting [5]) is 1%. For the molecule `OC(c1cccnc1)c1c(-c2ccc(Cl)cc2)noc1-c1ccc(F)cc1` (centres unmarked) [Cmpd No. 88, 3-(4-Chlorophenyl)-5-(4-fluorophenyl)-4-[(3-pyridyl)-hydroxymethyl]-isoxazole], the Observed efficacy in experiment [2] (1 ppm) came out at 3%. Take `Cc1cc(C)nc(Nc2ccccc2)n1` [Pyrimethanil, 4,6-dimethylpyrimidin-2-ylphenylamine, reference compound]: in experiment [3] (setting [4]), the inhibition of growth at 0.063 ppm was 5%. This molecule showed an Observed efficacy in experiment [1] (16 ppm) of 38%. As to `CC(C)OC(=O)N[C@H](C(=O)N[C@H](C)c1nc2ccc(F)cc2s1)C(C)C` [Benthivalicarb, isopropyl {(S)-1-[(1R)-1-(6-fluorobenzothiazol-2-yl)ethylcarbamoyl]-2-methylpropyl}carbamate, reference compound], in experiment [3] (Botrytis cinerea, 168 h, read-out: Observed efficacy), the inhibition of growth at 0.063 ppm is 0%.

On to “zinc propylenebis(dithiocarbamate) polymer [Propineb, reference compound]”, for which the Observed efficacy in experiment [3] (active compound alone, 4 ppm, 7 days after inoculation) was determined as 32%.

Values taken from US20100179059A1, “Fungicidal Mixtures” (BASF SE, priority 2007, published 2010).
